Data as given in PMC7617869, “Molecular glues that inhibit deubiquitylase activity and inflammatory signaling” (Nature Structural & Molecular Biology, 2025).
Where “and” joins values, the source holds several entries; their conditions need not be identical. Identical values can stand only once.

Assays:
BRISC–SHMT2 interaction = molecular target: T1, BRISC–SHMT2 interaction (Homo sapiens, UniProt P46736+Q15018+Q9NXR7); assay: Dianthus spectral shift binding assay (BRISC–SHMT2); conditions: labelled BRISC preincubated with 100 μM compound
T1 construct: His (tag of the complex); made in house
Method: Site-specific labeling of His-tagged BRISC was performed using a RED-Tris-NTA second-generation labeling kit (NanoTemper Technologies) in buffer containing 25 mM HEPES pH 7.5, 150 mM NaCl, 1 mM DTT and 0.005% Tween-20. First, 100 nM His–BRISC was incubated with 25 nM RED-Tris-NTA dye and prepared according to the Nanotemper protocol. […] The reactions were carried out in 384-well Dianthus microplates (Nanotemper Technologies) with a 20-μl reaction volume. The measurements were performed using autoexcitation on a Dianthus NT.23 instrument at 25 °C using DI.Control software (version 2.1.1; Nanotemper Technologies). Data were analyzed using DI.Screening Analysis software (version 2.1.1; Nanotemper Technologies) and plotted in GraphPad Prism (version 10.1.0). KD values were determined using a GraphPad Prism built-in equation for total binding (one site).

BRISC = molecular target: T2, BRISC (Homo sapiens, UniProt P46736+Q15018+Q9NXR7); assay: BRISC DUB activity assay (IQF K63-linked diubiquitin); type: biochemical; conditions: for Mean: Fig. 1d; for Normalised V0: replicate columns
T2 construct: made in house; host or cells: Spodoptera frugiperda (Sf9) insect cells, MultiBac
Method: IQF assays were performed in DUB reaction buffer containing 50 mM HEPES–NaOH pH 7.0, 100 mM NaCl, 0.1 mg ml^−1 BSA, 1 mM DTT and 0.03% v/v Brij-35. […] The final concentration of BRISC WT, all BRISC mutants, HsBRISCΔLoop, MmBRISC and DrBRISCΔNΔC was 1 nM. Other enzymes were tested at the following concentrations: 5 nM ARISC (FL), 10 nM CfBRISCΔNΔC, 250 nM AMSH* (ref. [43]), 500 nM USP2 and 1 μM trypsin (Sigma, 9002-07-7). For Michaelis–Menten experiments, 1 nM BRISC with 0–1 μM IQF K63-linked diubiquitin substrate was used. Michaelis–Menten analyses and Lineweaver–Burk plots were calculated using GraphPad Prism (version 9.0).
To assess enzymatic activity, BRISC complexes were diluted to concentrations between 1 nM and 50 nM. […] Then, 20-μl enzyme reactions were carried out in 384-well black flat-bottom low-flange plates (Corning, 35373). DUB activity was measured using IQF K63-linked diubiquitin (LifeSensors, DU6303) at 50 nM. Cleaved diubiquitin was monitored by measuring fluorescence intensity (excitation, 544 nm; emission, 575 nm; dichroic mirror, 560 nm). Fluorescence intensity was measured every minute for 30 min at 30 °C. Fluorescence intensity units were plotted against time to generate a linear reaction progress curve, where the initial velocity (V0) corresponds to the gradient of the curve (typically achieved within 15 min). IC50 values were calculated using the GraphPad Prism (version 9.0) built-in dose–response equation for inhibitor concentration versus response (variable slope).

BRISC (FL) = molecular target: T3, BRISC (FL) (Homo sapiens, UniProt P46736+Q15018+Q9NXR7); assay: In-gel deubiquitylation assay, TAMRA-labeled K63-tetraubiquitin, BRISC; type: biochemical; conditions: 10 μM or 100 μM inhibitor
T3 construct: full-length BRISC (FL), ARISC (FL); made in house; host or cells: Spodoptera frugiperda Sf9 insect cells (MultiBac)
Method: The inhibitor capzimin (Merck) was diluted in 1 mM DTT and incubated for 30 min at room temperature to reduce disulfide bonds required for inhibitor activity. […] DUBs were incubated with 750 nM TAMRA-labeled K63-tetraubiquitin (LifeSensors, SI6304T) for 10 min at 30 °C. Reactions were quenched by adding 2.5 μl of 4× SDS–PAGE loading dye (240 mM Tris-HCl pH 6.8, 40% v/v glycerol, 8% w/v SDS, 0.04% w/v bromophenol blue and 5% v/v β-mercaptoethanol). The samples were resolved on 4–12% NuPAGE Bis–Tris gels (Thermo Fisher Scientific). Gels were scanned using an iBright FL 1500 (Thermo Fisher Scientific) (excitation, 515–545 nm; emission, 568–617 nm; exposure, 500 ms).

## O=C(NC1CCN(C(=O)c2c(Cl)cccc2Cl)CC1)c1n[nH]cc1NC(=O)c1c(Cl)cccc1Cl [AP-5-144]
BRISC–SHMT2 interaction; SHMT2 0.00140381 μM
  Ratio 670 nm/650 nm: 1.077 and 1.081 and 1.064
BRISC–SHMT2 interaction; SHMT2 0.00280762 μM
  Ratio 670 nm/650 nm: 1.075 and 1.068 and 1.082
BRISC–SHMT2 interaction; SHMT2 0.00561523 μM
  Ratio 670 nm/650 nm: 1.073 and 1.081 and 1.075
BRISC–SHMT2 interaction; SHMT2 0.0112305 μM
  Ratio 670 nm/650 nm: 1.064 and 1.071 and 1.065
BRISC–SHMT2 interaction; SHMT2 0.0224609 μM
  Ratio 670 nm/650 nm: 1.049 and 1.052
BRISC–SHMT2 interaction; SHMT2 0.0449219 μM
  Ratio 670 nm/650 nm: 1.026 and 1.035 and 1.037
BRISC–SHMT2 interaction; SHMT2 0.0898438 μM
  Ratio 670 nm/650 nm: 1.012 and 1.013 and 1.006
BRISC–SHMT2 interaction; SHMT2 0.179688 μM
  Ratio 670 nm/650 nm: 0.993 and 0.976 and 0.943
BRISC–SHMT2 interaction; SHMT2 0.359375 μM
  Ratio 670 nm/650 nm: 0.948 and 0.935 and 0.925
BRISC–SHMT2 interaction; SHMT2 0.71875 μM
  Ratio 670 nm/650 nm: 0.903 and 0.887 and 0.836
BRISC–SHMT2 interaction; SHMT2 1.4375 μM
  Ratio 670 nm/650 nm: 0.863 and 0.84 and 0.841
BRISC–SHMT2 interaction; SHMT2 2.875 μM
  Ratio 670 nm/650 nm: 0.823 and 0.805 and 0.806
BRISC–SHMT2 interaction; SHMT2 5.75 μM
  Ratio 670 nm/650 nm: 0.792 and 0.756 and 0.785
BRISC–SHMT2 interaction; SHMT2 11.5 μM
  Ratio 670 nm/650 nm: 0.776 and 0.777 and 0.775
BRISC–SHMT2 interaction; SHMT2 23 μM
  Ratio 670 nm/650 nm: 0.77 and 0.773 and 0.777
BRISC–SHMT2 interaction; SHMT2 46 μM
  Ratio 670 nm/650 nm: 0.768 and 0.78 and 0.777
BRISC; log[compound (μM)] 0.1931
  Mean: 1.0068
BRISC; log[compound (μM)] 0.4942
  Mean: 1.0306
BRISC; log[compound (μM)] 0.7959
  Mean: 0.9990
BRISC; log[compound (μM)] 1.0969
  Mean: 1.0116
BRISC; log[compound (μM)] 1.3979
  Mean: 0.9713
BRISC; log[compound (μM)] 1.6990
  Mean: 1.1388
BRISC; log[compound (μM)] 2.0000
  Mean: 1.0728
BRISC; log[compound (μM)] 2.3010
  Mean: 1.1033
BRISC; log[compound (μM)] -0.1079
  Mean: 1.1343
BRISC; log[compound (μM)] -0.4089
  Mean: 1.1217
BRISC; log[compound (μM)] -0.7212
  Mean: 1.1333
BRISC; log[compound (μM)] -1.7212
  Mean: 1.0000
BRISC; IQF diubiquitin assay
  inhibition of BRISC DUB activity (in words): did not inhibit
BRISC; [Inhibitor] 0.013 μM
  Normalised V0: 0.9578 and 1.102 and 0.7959 and 1.072
BRISC; [Inhibitor] 0.02 μM
  Normalised V0: 0.8824 and 1.105
BRISC; [Inhibitor] 0.0399999 μM
  Normalised V0: 1.048 and 1.358
BRISC; [Inhibitor] 0.0599997 μM
  Normalised V0: 0.9169 and 1.23
BRISC; [Inhibitor] 0.0799994 μM
  Normalised V0: 1.0394 and 1.173
BRISC; [Inhibitor] 0.119998 μM
  Normalised V0: 0.856 and 0.7489
BRISC; [Inhibitor] 0.199996 μM
  Normalised V0: 0.9661 and 1.115
BRISC; [Inhibitor] 0.499975 μM
  Normalised V0: 0.9387 and 1.144
BRISC; [Inhibitor] 0.799936 μM
  Normalised V0: 0.8532 and 1.098
BRISC; [Inhibitor] 1.25984 μM
  Normalised V0: 0.9637 and 1.032
BRISC; [Inhibitor] 1.9996 μM
  Normalised V0: 0.7701 and 1.137
BRISC; [Inhibitor] 3.159 μM
  Normalised V0: 0.887 and 1.055
BRISC; [Inhibitor] 5.19739 μM
  Normalised V0: 0.7796 and 1.219
BRISC; [Inhibitor] 7.99364 μM
  Normalised V0: 0.912 and 1.161
BRISC; [Inhibitor] 12.7839 μM
  Normalised V0: 0.972 and 1.143
BRISC; [Inhibitor] 19.96 μM
  Normalised V0: 0.9311 and 1.165
BRISC; [Inhibitor] 31.4999 μM
  Normalised V0: 0.8747 and 1.168
BRISC; [Inhibitor] 50.147 μM
  Normalised V0: 0.908 and 1.016
BRISC; [Inhibitor] 79.7601 μM
  Normalised V0: 0.7753 and 1.257
BRISC; [Inhibitor] 125.99 μM
  Normalised V0: 0.9194 and 0.97
BRISC; [Inhibitor] 199.922 μM
  Normalised V0: 0.8606 and 0.9293
BRISC (FL)
  inhibition of BRISC cleavage of K63-linked tetraubiquitin: did not inhibit
